Consider 16 compounds from patent US9481676B2, “Azepino[4,5-B]indoles and methods of use” (Medivation Technologies, Inc., priority 2008, dated 2016).

Molecules are shown by their SMILES.

Test [1] concerns the target T1, human recombinant adrenergic α2A receptor (Homo sapiens, UniProt P08913).
T1 construct: expressed in transfected cells; host or cells: insect Sf9 cells
T1 sequence (P08913 1-465): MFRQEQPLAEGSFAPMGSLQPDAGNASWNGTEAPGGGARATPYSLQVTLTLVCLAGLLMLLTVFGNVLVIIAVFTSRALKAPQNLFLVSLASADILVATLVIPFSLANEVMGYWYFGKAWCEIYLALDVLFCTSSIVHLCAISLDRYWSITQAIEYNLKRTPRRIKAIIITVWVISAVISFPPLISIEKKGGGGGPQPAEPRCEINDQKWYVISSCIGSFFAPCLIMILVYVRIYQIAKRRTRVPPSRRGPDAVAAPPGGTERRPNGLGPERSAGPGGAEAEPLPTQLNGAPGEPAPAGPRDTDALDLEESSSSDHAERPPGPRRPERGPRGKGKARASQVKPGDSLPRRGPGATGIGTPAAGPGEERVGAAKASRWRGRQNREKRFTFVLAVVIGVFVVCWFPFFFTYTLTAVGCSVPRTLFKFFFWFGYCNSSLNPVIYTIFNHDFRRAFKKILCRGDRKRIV
As to the kind of experiment: Adrenergic alpha2A radioligand binding ([3H]MK-912). Particulars: compound at 1 μM; read-out: Adrenergic (1 μM) α2A, percent inhibition of specific binding. As to the method:
To evaluate in radioligand binding assays the activity of compounds of the invention, human recombinant adrenergic α2A receptor expressed in insect Sf9 cells (Uhlen S et al. J Pharmacol Exp Ther. 271:1558, 1994) in a modified Tris-HCl buffer (50 mM Tris-HCl, pH 7.4, 12.5 mM MgCl2, 2 mM EDTA) was used. Compounds of invention were incubated with 1 nM [^3H]MK-912 for 60 min. at 25° C. MK912 is (2S-trans)-1,3,4,5′,6,6′,7,12b-octahydro-1′,3′-dimethyl-spiro[2 h-benzofuro [2,3-a]quinolizine-2,4′ (1′H)-pyrimidin]-2′ (3′H)-one hydrochloride Non-specific binding was estimated in the presence of 10 μM WB-4101 (2-(2,6-Dimethoxyphenoxyethyl)aminomethyl-1,4-benzodioxane hydrochloride). Receptor proteins were filtered and washed, the filters were then counted to determine [^3H]MK-912 specifically bound. Compounds were screened at 1 μM or lower, using 1% DMSO as vehicle. Biochemical assay results are presented as the percent inhibition of specific binding in Table 5.

Test [2] has as its target T2, human recombinant serotonin (5-Hydroxytryptamine) 5-HT2A receptor (Homo sapiens, UniProt P28223).
T2 construct: expressed in transfected cells; host or cells: CHO-K1 cells
As to the kind of experiment: Serotonin 5-HT2A radioligand binding ([3H]Ketanserin). As to conditions: compound at 1 μM; read-out: Serotonin (1 μM) 5-HT2A, percent inhibition of specific binding. The method, boiled down: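 Percent inhibition of specific [3H]ketanserin (0.5 nM) binding, filtration read-out, with compounds at ≤1 μM (1% DMSO vehicle). Receptor source: recombinant human 5-HT2A in CHO-K1 cells, 50 mM Tris-HCl pH 7.4, 60 min, 25 °C; 1 μM mianserin gives nonspecific binding.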

The target in test [3] is T3, human recombinant adrenergic α2B receptor (Homo sapiens, UniProt P18089).
T3 construct: expressed in transfected cells; host or cells: CHO-K1 cells
T3 sequence (P18089 1-450): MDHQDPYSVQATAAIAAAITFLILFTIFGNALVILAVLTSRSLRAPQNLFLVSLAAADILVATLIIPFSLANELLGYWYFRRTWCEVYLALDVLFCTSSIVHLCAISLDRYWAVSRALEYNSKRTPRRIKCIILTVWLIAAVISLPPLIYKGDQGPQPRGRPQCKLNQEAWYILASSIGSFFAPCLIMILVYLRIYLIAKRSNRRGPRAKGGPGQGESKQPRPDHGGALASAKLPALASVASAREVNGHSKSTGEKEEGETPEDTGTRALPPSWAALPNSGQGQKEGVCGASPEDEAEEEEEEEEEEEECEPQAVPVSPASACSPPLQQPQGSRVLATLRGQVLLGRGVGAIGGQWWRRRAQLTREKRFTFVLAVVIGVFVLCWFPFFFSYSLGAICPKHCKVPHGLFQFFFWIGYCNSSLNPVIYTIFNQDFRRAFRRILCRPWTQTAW
As to the kind of experiment: Adrenergic alpha2B radioligand binding ([3H]Rauwolscine). As to conditions: compound at 1 μM; read-out: Adrenergic (1 μM) α2B, percent inhibition of specific binding. The protocol: To evaluate in radioligand binding assays the activity of compounds of the invention, human recombinant adrenergic α2B receptor expressed in Chinese hamster ovary (CHO-K1) cells (Uhlen S et al. Eur J. Pharmacol. 343(1):93, 1998) in a modified Tris-HCl buffer (50 mM Tris-HCl, pH 7.4, 12.5 mM MgCl2, 1 mM EDTA, 0.2% BSA) was used. Compounds of the invention were incubated with 2.5 nM [^3H]Rauwolscine for 60 min. at 25° C. Non-specific binding was estimated in the presence of 10 μM Prozosin. Receptor proteins were filtered and washed, the filters were then counted to determine [^3H]Rauwolscine specifically bound. Compounds were screened at 1 μM or lower, using 1% DMSO as vehicle. Biochemical assay results are presented as the percent inhibition of specific binding in Table 5.

Test [4] addresses T4, human recombinant dopamine D2L receptor (Homo sapiens, UniProt P14416).
T4 construct: expressed in transfected cells; host or cells: CHO cells
As to the kind of experiment: Dopamine D2L radioligand binding ([3H]Spiperone). As to conditions: compound at 1 μM; read-out: Dopamine (1 μM) D2L, percent inhibition of specific binding. The method, boiled down:
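Binding measured by filtration and counting, reported as % inhibition of specific [3H]spiperone binding (0.16 nM tracer; 10 μM haloperidol for nonspecific). Compounds tested at ≤1 μM in 1% DMSO for 120 min at 25° C against CHO-expressed human D2L in pH 7.4 Tris-HCl buffer.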

T2 sequence (P28223 whole entry): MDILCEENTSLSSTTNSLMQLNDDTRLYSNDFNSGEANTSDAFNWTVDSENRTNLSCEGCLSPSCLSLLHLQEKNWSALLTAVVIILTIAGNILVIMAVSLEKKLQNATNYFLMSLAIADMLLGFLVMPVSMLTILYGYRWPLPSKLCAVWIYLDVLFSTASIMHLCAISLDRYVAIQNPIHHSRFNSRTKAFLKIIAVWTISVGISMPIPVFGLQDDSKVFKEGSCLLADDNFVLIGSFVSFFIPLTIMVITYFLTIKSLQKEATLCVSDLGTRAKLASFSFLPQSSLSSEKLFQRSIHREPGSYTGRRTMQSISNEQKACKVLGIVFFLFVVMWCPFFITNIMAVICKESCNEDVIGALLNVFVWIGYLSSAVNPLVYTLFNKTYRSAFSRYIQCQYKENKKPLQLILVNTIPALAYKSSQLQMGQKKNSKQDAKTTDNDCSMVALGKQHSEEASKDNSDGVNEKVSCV
T4 sequence (P14416 whole entry): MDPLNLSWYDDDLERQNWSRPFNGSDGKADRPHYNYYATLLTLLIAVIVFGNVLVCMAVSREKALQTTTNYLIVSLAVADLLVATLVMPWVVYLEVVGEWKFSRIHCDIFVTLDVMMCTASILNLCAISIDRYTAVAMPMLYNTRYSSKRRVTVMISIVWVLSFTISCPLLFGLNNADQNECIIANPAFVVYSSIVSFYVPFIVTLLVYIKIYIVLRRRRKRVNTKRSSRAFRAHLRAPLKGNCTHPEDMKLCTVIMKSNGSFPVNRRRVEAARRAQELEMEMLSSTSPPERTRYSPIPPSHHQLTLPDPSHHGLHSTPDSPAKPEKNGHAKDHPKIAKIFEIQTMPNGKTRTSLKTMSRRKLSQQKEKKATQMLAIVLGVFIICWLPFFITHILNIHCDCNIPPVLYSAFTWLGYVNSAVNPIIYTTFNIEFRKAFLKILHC

In the case of `CN1CCc2c(n(CC(O)c3ccc(F)cc3)c3ccc(Cl)cc23)CC1` (stereo not shown) [Compound No. 51, 2-(9-chloro-2,3,4,5-tetrahydro-3-methylazepino[4,5-b]indol-6(1H)-yl)-1-(4-fluorophenyl) ethanol], the inhibition at 1 µM in test [1] was 98%; in test [2], 97%; in test [3], 103%; in test [4], 30%.

Turning to `C/C(=C\n1c2c(c3cc(Cl)ccc31)CCN(C)CC2)c1ccc(Cl)cc1Cl` [Compound No. 239, (E)-9-chloro-6-(2-(2,4-dichlorophenyl)prop-1-enyl)-3-methyl-1,2,3,4,5,6-hexahydroazepino[4,5-b]indole], the inhibition at 1 µM in test [1] turned out to be 93%; in test [2] it was 102%; in test [3], 107%; in test [4], 9%.

For the compound `CN1CCc2c(n(CCc3ccncc3)c3ccc(Cl)cc23)CC1` [Compound No. 5, 9-chloro-1,2,3,4,5,6-hexahydro-3-methyl-6-(2-(pyridin-4-yl)ethyl)azepino[4,5-b]indole], the inhibition at 1 µM came to 97% in test [1], 96% in test [2], 100% in test [3] and 34% in test [4].

As to `C/C(=C\n1c2c(c3cc(C)ccc31)CCN(C)CC2)c1ccc(Cl)cc1` [Compound No. 33, 6-((E)-2-(4-chlorophenyl)prop-1-enyl)-1,2,3,4,5,6-hexahydro-3,9-dimethylazepino[4,5-b]indole], the inhibition at 1 µM came to 97% in test [1], 100% in test [2], 103% in test [3] and 35% in test [4].

Consider `CN1CCc2c(n(CCc3ccccc3Cl)c3ccc(Cl)cc23)CC1` [Compound No. 29, 6-(2-chlorophenethyl)-9-chloro-1,2,3,4,5,6-hexahydro-3-methylazepino[4,5-b]indole], for which the inhibition at 1 µM in test [1] amounted to 101%; in test [2] it was 100%; in test [3], 101%; in test [4], 67%.

For `C=C(Cn1c2c(c3cc(Cl)ccc31)CCN(C)CC2)c1ccc(Cl)cc1` [Compound No. 35, 9-chloro-6-(2-(4-chlorophenyl)allyl)-3-methyl-1,2,3,4,5,6-hexahydroazepino[4,5-b]indole], the inhibition at 1 µM in test [1] stood at 93%; in test [2], 99%; in test [3], 112%; in test [4], 50%.

Consider `CN1CCc2c(n(CC(O)c3ccccc3F)c3ccc(Cl)cc23)CC1` (stereo not shown) [Compound No. 40, 2-(9-chloro-2,3,4,5-tetrahydro-3-methylazepino[4,5-b]indol-6(1H)-yl)-1-(2-fluorophenyl)ethanol], for which the inhibition at 1 µM amounted to 96% in test [1], 97% in test [2], 101% in test [3] and 46% in test [4].

As for `Cc1ccc2c(c1)c1c(n2CC(O)c2ccccc2)CCN(C)CC1` (stereo not shown) [Compound No. 25, 2-(2,3,4,5-tetrahydro-3,9-dimethylazepino[4,5-b]indol-6(1H)-yl)-1-phenylethanol], the inhibition at 1 µM in test [1] worked out at 100%; in test [2] it was 97%; in test [3] it was 104%; in test [4], 43%.

As to `CN1CCc2c(n(CC(C)(O)c3ccc(F)cc3)c3ccc(Cl)cc23)CC1` (stereo not shown) [Compound No. 13, 1-(9-chloro-2,3,4,5-tetrahydro-3-methylazepino[4,5-b]indol-6(1H)-yl)-2-(4-fluorophenyl)propan-2-ol], the inhibition at 1 µM in test [1] was 94%; in test [2] it was 97%; in test [3], 105%; in test [4], 38%.

In the case of `Cc1ccc2c(c1)c1c(n2CC(=O)NC(C)C)CCN(C)CC1` [Compound No. 54, 2-(2,3,4,5-tetrahydro-3,9-dimethylazepino[4,5-b]indol-6(1H)-yl)-N-isopropylacetamide], the inhibition at 1 µM in test [1] is 5%; in test [2], 1%; in test [3], 1%; in test [4] it was 6%.

With `Cc1ccc2c(c1)c1c(n2/C=C/c2ccc(Cl)cc2)CCN(C)CC1` [Compound No. 235, (E)-6-(4-chlorostyryl)-3,9-dimethyl-1,2,3,4,5,6-hexahydroazepino[4,5-b]indole], the inhibition at 1 µM in test [1] was found to be 95%; in test [2] it was 102%; in test [3], 98%; in test [4] it was 42%.

Regarding `CN1CCc2c(n(CCc3ccccn3)c3ccc(Cl)cc23)CC1` [Compound No. 8, 9-chloro-1,2,3,4,5,6-hexahydro-3-methyl-6-(2-(pyridin-2-yl)ethyl)azepino[4,5-b]indole], the inhibition at 1 µM was 95% in test [1], 97% in test [2], 103% in test [3] and 42% in test [4].

For `C/C(=C\n1c2c(c3cc(Cl)ccc31)CCN(C)CC2)c1ccc(Cl)cc1` [Compound No. 36, 9-chloro-6-((E)-2-(4-chlorophenyl)prop-1-enyl)-1,2,3,4,5,6-hexahydro-3-methylazepino[4,5-b]indole], the inhibition at 1 µM in test [1] came out at 96%; in test [2], 97%; in test [3] it was 101%; in test [4], 34%.

For the compound `CN1CCc2c(n(CC(=O)Nc3ccc(F)cc3)c3ccc(Cl)cc23)CC1` [Compound No. 37, 2-(9-chloro-2,3,4,5-tetrahydro-3-methylazepino[4,5-b]indol-6(1H)-yl)-N-(4-fluorophenyl) acetamide], the inhibition at 1 µM in test [1] was determined as 68%; in test [2], 91%; in test [3] it was 70%; in test [4], 9%.

For the compound `CN1CCc2c(n(CC(O)c3ccc(F)c(F)c3)c3ccc(Cl)cc23)CC1` (stereo not shown) [Compound No. 58, 2-(9-chloro-2,3,4,5-tetrahydro-3-methylazepino[4,5-b]indol-6(1H)-yl)-1-(3,4-difluorophenyl)ethanol], the inhibition at 1 µM came out at 95% in test [1], 100% in test [2], 10% in test [3] and 47% in test [4].

On to `CN1CCc2c(n(CCc3ccccc3F)c3ccc(Cl)cc23)CC1` [Compound No. 61, 6-(2-fluorophenethyl)-9-chloro-1,2,3,4,5,6-hexahydro-3-methylazepino[4,5-b]indole], for which the inhibition at 1 µM in test [1] was determined as 23%; in test [2] it was 43%; in test [3] it was 103%; in test [4], 1%.
